Measured values taken from paper PMC5218480 (PLoS ONE, 2017).

System: MV-4-11 cells
Assay: Gene expression microarray analysis (Affymetrix PrimeView) and GSEA
Type: cell-based, human
Parameters: RFU PODN (11730768_x_at) / Fold change /veh PODN (11730768_x_at) / RFU LINC00158 (11744669_a_at) / Fold change /veh LINC00158 (11744669_a_at) / RFU DUSP10 (11751237_a_at) / Fold change /veh DUSP10 (11751237_a_at) / RFU ID3 (11757404_x_at) / Fold change /veh ID3 (11757404_x_at) / RFU PLEKHG5 (11737974_s_at) / Fold change /veh PLEKHG5 (11737974_s_at) / RFU LRRC4B (11730491_at) / Fold change /veh LRRC4B (11730491_at) / RFU GIMAP4 (11747438_a_at) / Fold change /veh GIMAP4 (11747438_a_at) / RFU KRT8 (11758183_x_at) / Fold change /veh KRT8 (11758183_x_at) / RFU CNN1 (11734310_a_at) / Fold change /veh CNN1 (11734310_a_at) / RFU VPS37D (11726825_at) / Fold change /veh VPS37D (11726825_at) / RFU C10orf10 (11716522_x_at) / Fold change /veh C10orf10 (11716522_x_at) / RFU KIR2DL2 /// KIR2DL4 /// KIR2DL5A /// KIR2DL5B /// KIR2DS1 /// KIR2DS2 /// KIR2DS3 /// KIR2DS4 /// KIR3DL3 /// KIR3DL3 /// KIR3DS1 (11738374_at) / Fold change /veh KIR2DL2 /// KIR2DL4 /// KIR2DL5A /// KIR2DL5B /// KIR2DS1 /// KIR2DS2 /// KIR2DS3 /// KIR2DS4 /// KIR3DL3 /// KIR3DL3 /// KIR3DS1 (11738374_at) / RFU C1QL1 (11718748_at) / Fold change /veh C1QL1 (11718748_at) / RFU TMPRSS4 (11747572_a_at) / Fold change /veh TMPRSS4 (11747572_a_at) / RFU HAMP (11756126_x_at) / Fold change /veh HAMP (11756126_x_at) / RFU RNFT2 (11725882_a_at) / Fold change /veh RNFT2 (11725882_a_at) / RFU NR4A2 (11747474_a_at) / Fold change /veh NR4A2 (11747474_a_at) / RFU ABCC12 (11746883_a_at) / Fold change /veh ABCC12 (11746883_a_at) / RFU TMEM136 (11760407_x_at) / Fold change /veh TMEM136 (11760407_x_at) / RFU CLDN22 /// WWC2 (11732394_at) / Fold change /veh CLDN22 /// WWC2 (11732394_at) / RFU HLA-DPB1 (11760878_x_at) / Fold change /veh HLA-DPB1 (11760878_x_at) / RFU SPINT1 (11716480_a_at) / Fold change /veh SPINT1 (11716480_a_at) / RFU GAP43 (11754022_s_at) / Fold change /veh GAP43 (11754022_s_at) / RFU A4GNT (11735810_at) / Fold change /veh A4GNT (11735810_at) / RFU PRB3 (11715151_x_at) / Fold change /veh PRB3 (11715151_x_at) / RFU TUBB4B (11761932_at) / Fold change /veh TUBB4B (11761932_at) / RFU CAPN14 (11732068_a_at) / Fold change /veh CAPN14 (11732068_a_at) / RFU TMCC2 (11721928_a_at) / Fold change /veh TMCC2 (11721928_a_at) / RFU IRGQ (11745062_a_at) / Fold change /veh IRGQ (11745062_a_at) / RFU FAM174B (11720279_a_at) / Fold change /veh FAM174B (11720279_a_at) / RFU TMPRSS4 (11748680_a_at) / Fold change /veh TMPRSS4 (11748680_a_at) / RFU FAM212B (11763350_a_at) / Fold change /veh FAM212B (11763350_a_at) / RFU PLEKHG5 (11743358_a_at) / Fold change /veh PLEKHG5 (11743358_a_at) / RFU ZSCAN30 (11745921_a_at) / Fold change /veh ZSCAN30 (11745921_a_at) / RFU CMKLR1 (11741424_a_at) / Fold change /veh CMKLR1 (11741424_a_at) / RFU LOC101060620 /// MAPK8IP1 (11723275_at) / Fold change /veh LOC101060620 /// MAPK8IP1 (11723275_at) / RFU SPTSSB (11747773_x_at) / Fold change /veh SPTSSB (11747773_x_at) / RFU PRSS12 (11739890_at) / Fold change /veh PRSS12 (11739890_at) / RFU BIN1 (11741810_x_at) / Fold change /veh BIN1 (11741810_x_at) / RFU WNT11 (11732464_a_at) / Fold change /veh WNT11 (11732464_a_at) / RFU C10orf10 (11716521_a_at) / Fold change /veh C10orf10 (11716521_a_at) / RFU C5orf56 (11738089_at) / Fold change /veh C5orf56 (11738089_at) / RFU CYB561 (11721691_x_at) / Fold change /veh CYB561 (11721691_x_at) / RFU ANKRD19P (11752326_a_at) / Fold change /veh ANKRD19P (11752326_a_at) / RFU OR2T12 /// OR2T33 /// OR2T8 (11738714_s_at) / Fold change /veh OR2T12 /// OR2T33 /// OR2T8 (11738714_s_at) / RFU VCAN (11748164_a_at) / Fold change /veh VCAN (11748164_a_at) / RFU JSRP1 (11732532_at) / Fold change /veh JSRP1 (11732532_at) / RFU KRTAP10-11 (11738290_x_at) / Fold change /veh KRTAP10-11 (11738290_x_at) / RFU MYO3A (11730013_a_at) / Fold change /veh MYO3A (11730013_a_at) / RFU EBF3 (11725865_a_at) / Fold change /veh EBF3 (11725865_a_at) / RFU CAMK2N1 (11719241_x_at) / Fold change /veh CAMK2N1 (11719241_x_at) / RFU C5orf56 (11738088_a_at) / Fold change /veh C5orf56 (11738088_a_at) / RFU OLFML3 (11715873_a_at) / Fold change /veh OLFML3 (11715873_a_at) / RFU LOC100653217 /// NTM (11731650_a_at) / Fold change /veh LOC100653217 /// NTM (11731650_a_at) / RFU MAPK11 (11762145_a_at) / Fold change /veh MAPK11 (11762145_a_at) / RFU FIZ1 (11724087_x_at) / Fold change /veh FIZ1 (11724087_x_at) / RFU OASL (11726364_x_at) / Fold change /veh OASL (11726364_x_at) / RFU SOX15 (11748057_x_at) / Fold change /veh SOX15 (11748057_x_at) / RFU CD79A (11719716_a_at) / Fold change /veh CD79A (11719716_a_at) / RFU HIST1H1D (11736915_at) / Fold change /veh HIST1H1D (11736915_at) / RFU CASKIN2 (11723855_a_at) / Fold change /veh CASKIN2 (11723855_a_at) / RFU LOC730098 (11760151_x_at) / Fold change /veh LOC730098 (11760151_x_at) / RFU OR4N2 (11742367_at) / Fold change /veh OR4N2 (11742367_at) / RFU PRRT2 (11749266_a_at) / Fold change /veh PRRT2 (11749266_a_at) / RFU SNX32 (11753110_a_at) / Fold change /veh SNX32 (11753110_a_at) / RFU CDHR5 (11726645_a_at) / Fold change /veh CDHR5 (11726645_a_at) / RFU RCAN1 (11760418_a_at) / Fold change /veh RCAN1 (11760418_a_at) / RFU FAM167A (11723789_a_at) / Fold change /veh FAM167A (11723789_a_at) / RFU FAM26E (11764081_at) / Fold change /veh FAM26E (11764081_at) / RFU ISYNA1 (11749810_s_at) / Fold change /veh ISYNA1 (11749810_s_at) / RFU ACY1 (11761880_at) / Fold change /veh ACY1 (11761880_at) / RFU 11764098_at / Fold change /veh 11764098_at / RFU SAMD14 (11745864_x_at) / Fold change /veh SAMD14 (11745864_x_at) / RFU NPB (11741838_a_at) / Fold change /veh NPB (11741838_a_at) / RFU TMPRSS6 (11731388_a_at) / Fold change /veh TMPRSS6 (11731388_a_at) / RFU KRTAP10-2 (11738614_at) / Fold change /veh KRTAP10-2 (11738614_at) / RFU ARHGAP8 /// PRR5-ARHGAP8 (11727945_x_at) / Fold change /veh ARHGAP8 /// PRR5-ARHGAP8 (11727945_x_at) / RFU KRTAP5-7 /// NADSYN1 (11734609_at) / Fold change /veh KRTAP5-7 /// NADSYN1 (11734609_at) / RFU RASL12 (11751679_a_at) / Fold change /veh RASL12 (11751679_a_at) / RFU CDKN2B (11736163_a_at) / Fold change /veh CDKN2B (11736163_a_at) / RFU PRF1 (11729649_at) / Fold change /veh PRF1 (11729649_at) / RFU, ZNF638 /// ZNF638-IT1 / Fold change vs veh, ZNF638 /// ZNF638-IT1 / RFU, PANK3 / Fold change vs veh, PANK3 / RFU, SH3YL1 / Fold change vs veh, SH3YL1 / RFU, ZEB2 / Fold change vs veh, ZEB2 / RFU, NRIP1 / Fold change vs veh, NRIP1 / RFU, PTTG1IP / Fold change vs veh, PTTG1IP / RFU, CAPN2 / Fold change vs veh, CAPN2 / RFU, MED14 / Fold change vs veh, MED14 / RFU, SNORA58 / Fold change vs veh, SNORA58 / RFU, C1orf63 / Fold change vs veh, C1orf63 / RFU, LRRFIP1 / Fold change vs veh, LRRFIP1 / RFU, NDUFAF7 / Fold change vs veh, NDUFAF7 / RFU, SLC12A2 / Fold change vs veh, SLC12A2 / RFU, IBTK / Fold change vs veh, IBTK / RFU, ESF1 / Fold change vs veh, ESF1 / Fold change vs veh, TMEM50B / RFU, TAOK1 / Fold change vs veh, TAOK1 / RFU, ACBD3 / Fold change vs veh, ACBD3 / RFU, TMA16 / Fold change vs veh, TMA16 / RFU, RWDD3 / Fold change vs veh, RWDD3 / RFU, BCAT1 / Fold change vs veh, BCAT1 / RFU, EDEM3 / Fold change vs veh, EDEM3 / RFU, TMEM33 / Fold change vs veh, TMEM33 / RFU, WDR75 / Fold change vs veh, WDR75 / RFU, AHCTF1 / Fold change vs veh, AHCTF1 / RFU, TFRC / Fold change vs veh, TFRC / RFU, ZDHHC17 / Fold change vs veh, ZDHHC17 / RFU, NOM1 / Fold change vs veh, NOM1 / RFU, ARL8B / Fold change vs veh, ARL8B / RFU, ZBTB11 / Fold change vs veh, ZBTB11 / RFU, TAMM41 / Fold change vs veh, TAMM41 / RFU, KIAA1704 /// LOC100996395 / Fold change vs veh, KIAA1704 /// LOC100996395 / RFU, ING1 / Fold change vs veh, ING1 / RFU, TRMT61B / Fold change vs veh, TRMT61B / RFU, FUBP3 / Fold change vs veh, FUBP3 / RFU, TP53 / Fold change vs veh, TP53 / RFU, TNKS2 / Fold change vs veh, TNKS2 / RFU, ZFP14 / Fold change vs veh, ZFP14 / RFU, ACTR2 / Fold change vs veh, ACTR2 / RFU, PPP3R1 / Fold change vs veh, PPP3R1 / RFU, PIK3R1 / Fold change vs veh, PIK3R1 / RFU, HNRNPA1 / Fold change vs veh, HNRNPA1 / RFU, RNF170 / Fold change vs veh, RNF170 / RFU, ZNF28 / Fold change vs veh, ZNF28 / RFU, RNGTT / Fold change vs veh, RNGTT / RFU, OGT / Fold change vs veh, OGT / RFU, BRD1 / Fold change vs veh, BRD1 / RFU, MARS / Fold change vs veh, MARS / RFU, ZNF655 / Fold change vs veh, ZNF655 / RFU, FAHD1 / Fold change vs veh, FAHD1 / RFU, BDP1 / Fold change vs veh, BDP1 / RFU, LRRCC1 / Fold change vs veh, LRRCC1 / RFU, ARID1A / Fold change vs veh, ARID1A / RFU, ZNF146 / Fold change vs veh, ZNF146 / RFU, ZNF330 / Fold change vs veh, ZNF330 / RFU, GPN3 / Fold change vs veh, GPN3 / RFU, C9orf123 / Fold change vs veh, C9orf123 / RFU, N4BP2L2 / Fold change vs veh, N4BP2L2 / RFU, ARFIP1 / Fold change vs veh, ARFIP1 / RFU, FAM179B / Fold change vs veh, FAM179B / RFU, BCL10 / Fold change vs veh, BCL10 / RFU, UHRF1BP1L / Fold change vs veh, UHRF1BP1L / RFU, BET1 / Fold change vs veh, BET1 / RFU, CNOT2 / Fold change vs veh, CNOT2 / RFU, ZNF268 / Fold change vs veh, ZNF268 / Fold change vs veh, ZNF507 / RFU, DGCR2 / Fold change vs veh, DGCR2 / RFU, WDSUB1 / Fold change vs veh, WDSUB1 / Fold change vs veh, HSP90B1 /// MIR3652 / RFU, ADSS / Fold change vs veh, ADSS / RFU, GK / Fold change vs veh, GK / RFU, ZNF148 / Fold change vs veh, ZNF148 / RFU, TAF9 / Fold change vs veh, TAF9 / RFU, SLC1A5 / Fold change vs veh, SLC1A5 / RFU, SLMO2 / Fold change vs veh, SLMO2 / RFU, ABCC4 / Fold change vs veh, ABCC4 / RFU, LOC101060439 /// RAP1B / Fold change vs veh, LOC101060439 /// RAP1B / RFU, RFX7 / Fold change vs veh, RFX7 / RFU, GTPBP10 / Fold change vs veh, GTPBP10 / RFU, CNEP1R1 / Fold change vs veh, CNEP1R1 / RFU, BIVM-ERCC5 /// ERCC5 / Fold change vs veh, BIVM-ERCC5 /// ERCC5 / RFU, ILF3 / Fold change vs veh, ILF3 / RFU 11762660_at / Fold change /veh 11762660_at / RFU VCAN (11757783_s_at) / Fold change /veh VCAN (11757783_s_at) / RFU DDX43 (11728927_at) / Fold change /veh DDX43 (11728927_at) / RFU KRT8 (11758188_x_at) / Fold change /veh KRT8 (11758188_x_at) / RFU NKD1 (11759106_at) / Fold change /veh NKD1 (11759106_at) / RFU SRD5A1 (11742802_a_at) / Fold change /veh SRD5A1 (11742802_a_at) / RFU TPSAB1 /// TPSB2 (11721975_s_at) / Fold change /veh TPSAB1 /// TPSB2 (11721975_s_at) / RFU GSTM3 (11746129_a_at) / Fold change /veh GSTM3 (11746129_a_at) / RFU IL23R (11737362_x_at) / Fold change /veh IL23R (11737362_x_at) / RFU TMEM51 (11727254_a_at) / Fold change /veh TMEM51 (11727254_a_at) / RFU PIWIL2 (11732686_x_at) / Fold change /veh PIWIL2 (11732686_x_at) / RFU ORM1 (11744905_x_at) / Fold change /veh ORM1 (11744905_x_at) / RFU CCDC152 (11743942_at) / Fold change /veh CCDC152 (11743942_at) / RFU ECM1 (11717891_a_at) / Fold change /veh ECM1 (11717891_a_at) / RFU IL23R (11748794_a_at) / Fold change /veh IL23R (11748794_a_at) / RFU TNFAIP8L3 (11732012_x_at) / Fold change /veh TNFAIP8L3 (11732012_x_at) / RFU MBOAT4 (11741988_at) / Fold change /veh MBOAT4 (11741988_at) / RFU 11764193_at / Fold change /veh 11764193_at / RFU TMEM53 (11763286_at) / Fold change /veh TMEM53 (11763286_at) / RFU MAGEB2 (11727129_at) / Fold change /veh MAGEB2 (11727129_at) / RFU TMEM200A (11744735_a_at) / Fold change /veh TMEM200A (11744735_a_at) / RFU CCDC152 (11751479_a_at) / Fold change /veh CCDC152 (11751479_a_at) / RFU FAM211A (11726209_a_at) / Fold change /veh FAM211A (11726209_a_at) / RFU RGS16 (11746705_a_at) / Fold change /veh RGS16 (11746705_a_at) / RFU VCAN (11755009_s_at) / Fold change /veh VCAN (11755009_s_at) / RFU RHOB (11743442_s_at) / Fold change /veh RHOB (11743442_s_at) / RFU RGS16 (11720943_a_at) / Fold change /veh RGS16 (11720943_a_at) / RFU RGS16 (11720944_at) / Fold change /veh RGS16 (11720944_at) / RFU, VPS4B / Fold change vs veh, VPS4B / RFU, CREB1 / Fold change vs veh, CREB1 / RFU, DNAJC13 / Fold change vs veh, DNAJC13 / RFU, GNAQ / Fold change vs veh, GNAQ / RFU, CDK5R1 / Fold change vs veh, CDK5R1 / RFU, ZRANB3 / Fold change vs veh, ZRANB3 / RFU, CUL4A / Fold change vs veh, CUL4A / RFU, CCNY / Fold change vs veh, CCNY / RFU, UFL1 / Fold change vs veh, UFL1 / RFU, COG3 / Fold change vs veh, COG3 / RFU, DIAPH2 / Fold change vs veh, DIAPH2 / RFU, SKA2 / Fold change vs veh, SKA2 / RFU, AFF3 / Fold change vs veh, AFF3 / RFU, LMF1 / Fold change vs veh, LMF1 / RFU, IPO11 / Fold change vs veh, IPO11 / RFU, DFFB / Fold change vs veh, DFFB / RFU, FOXP1 / Fold change vs veh, FOXP1 / RFU, CARD8 / Fold change vs veh, CARD8 / RFU, STRN3 / Fold change vs veh, STRN3 / RFU, ADK / Fold change vs veh, ADK / RFU, RASSF2 / Fold change vs veh, RASSF2 / RFU, WIPF1 / Fold change vs veh, WIPF1 / RFU, LARP1B / Fold change vs veh, LARP1B / RFU, RASA1 / Fold change vs veh, RASA1 / RFU, RB1 / Fold change vs veh, RB1 / RFU, PPFIA1 / Fold change vs veh, PPFIA1 / RFU, MAT2A / Fold change vs veh, MAT2A / RFU, CCT5 / Fold change vs veh, CCT5 / RFU, WDR92 / Fold change vs veh, WDR92 / RFU, CUX1 / Fold change vs veh, CUX1 / RFU, TTC7A / Fold change vs veh, TTC7A / RFU, TMEM135 / Fold change vs veh, TMEM135 / RFU, DEPTOR / Fold change vs veh, DEPTOR / RFU, CPM / Fold change vs veh, CPM / RFU, DNAJB6 / Fold change vs veh, DNAJB6 / RFU, CACNA2D3 / Fold change vs veh, CACNA2D3 / RFU, DTX4 / Fold change vs veh, DTX4 / RFU, TFCP2 / Fold change vs veh, TFCP2 / RFU, GMCL1 /// GMCL1P1 / Fold change vs veh, GMCL1 /// GMCL1P1 / RFU, AEBP2 / Fold change vs veh, AEBP2 / RFU, SNHG1 /// SNORD22 /// SNORD25 /// SNORD26 /// SNORD27 /// SNORD28 /// SNORD29 /// SNORD31 / Fold change vs veh, SNHG1 /// SNORD22 /// SNORD25 /// SNORD26 /// SNORD27 /// SNORD28 /// SNORD29 /// SNORD31 / Fold change (Aza/veh), C12orf56 (ProbeSet 11735607_a_at) / Fold change (ACY-1035/veh), C12orf56 (ProbeSet 11735607_a_at) / Fold change (Aza/veh), FGFR1OP (ProbeSet 11751329_s_at) / Fold change (ACY-1035/veh), FGFR1OP (ProbeSet 11751329_s_at) / Fold change (Aza/veh), VPS36 (ProbeSet 11739960_a_at) / Fold change (ACY-1035/veh), VPS36 (ProbeSet 11739960_a_at) / RFU SYPL1 (11715823_x_at) / Fold change /veh SYPL1 (11715823_x_at) / RFU IGFBP7 (11715501_s_at) / Fold change /veh IGFBP7 (11715501_s_at) / RFU REEP3 (11722064_at) / Fold change /veh REEP3 (11722064_at) / RFU IGLL1 (11728026_x_at) / Fold change /veh IGLL1 (11728026_x_at): dose or concentration left out as unconfirmed
Details: ProbeSet 11732277_a_at; LIST D

Nc1ncn([C@@H]2O[C@H](CO)[C@@H](O)[C@H]2O)c(=O)n1 [azacitidine]
RFU, FOXP1: 363.93 RFU
